The values below come from patent publication US20050032221A1, “Dominant negative variants of methionine aminopeptidase 2 (MetAP2) and clinical uses thereof” (priority 2001, published 2005).

One assay concerns peptide substrate (MGMM). Nature of the assay: MetAP activity assay of immunopurified HA-tagged yeast MetAP2 with Met-Gly-Met-Met. Type of assay: biochemical. The conditions noted are these: immunopurified HA-tagged enzyme from map1Δ. The procedure: […]. Approximately 2 μg of purified wild-type MetAP2 (WT) and MetAP2 (H174A) was separated on a 10% SDS-PAGE gel and visualized with coomassie blue staining. Specific activity for the wild-type MetAP2 was 11±0.5 U/mg.
The purification of HA-tagged wild-type and mutant yeast MetAP2 from a yeast map1Δ strain (Klinkenberg et al., Arch. Biochem. Biophys. 347:193-200, 1997) was performed as previously described (Li and Chang, 1995) with slight modifications. A 1-liter yeast culture was grown aerobically at 30° C. in SG/Leu^− medium. Cells were collected at an OD600˜1-2 by centrifugation at 1500×g for 5 min. The pellet was rinsed with buffer XL (10 mM Hepes, pH 7.4; 1.5 mM MgCl2, 10% Glycerol [v/v]) plus 100 mM NaCl and fresh protease inhibitors (1 μg/ml aprotinin, 1 μg/ml leupeptin, 0.7 μg/ml pepstatin A, 1 mM phenylmethylsulfonyl fluoride). Cells were disrupted by vortexing (5 cycles of 1 min vortexing, 1 min on ice) with 0.5-mm acid-washed glass beads (Biospec Products, Inc.,). The lysate was then cleared at 10,000×g for 20 min at 4° C. Cleared lysate was applied to a Protein-Sepharose G column (Pharmacia) previously rinsed and pre-equilibrated with buffer XL and an anti-hemagglutinin epitope ([…]; SEQ ID NO:23) monoclonal antibody (BabCO). After loading, the column was washed with buffer XL until OD280<0.01. […]

A further assay has as its system yeast map1Δ strain. The experiment in a line: Yeast growth assay, map1Δ, expression under GAL1 promoter. Type of assay: cell-based, yeast (S. cerevisiae). The procedure: A haploid yeast map1Δ strain was transformed to leucine prototrophy with p425GAL1/MAP2 wild-type (WT), p425GAL1/map2 (H174A), or p425GAL1 vector alone (V). Each strain was grown to mid-logarithmic phase at 30° C. in minimal synthetic raffinose medium lacking leucine. Approximately 2×10^5 cells (ABS600) were then streaked onto minimal synthetic plates lacking leucine and supplemented with (A) glucose or (B) galactose. Plates were incubated for 4 days at 30° C.
A haploid yeast map1Δ strain was transformed to leucine prototrophy with p425GAL1/MAP2 wild-type (WT), p425GAL1/map2 ([…]), p425GAL1/map2 (Δ2-57/H174A) or p425GAL1 vector alone (V). Each strain was grown to mid-logarithmic phase at 30° C. in minimal synthetic raffinose medium lacking leucine. […]
For relative growth comparison, strains were grown to mid-logarithmic phase in 5 ml of 2% raffinose minimal media lacking leucine and ˜2×10^5 cells (ABS600) were streaked onto SD/Leu^− or SG/Leu^− plates, then incubated for 4 days at 30° C. For quantitative comparison, a growth curve was obtained (FIG. 4). […] The ABS600 of each 1 mL culture was measured and diluted to an ABS600 of 0.2 in 5 mL of SG/Leu^−. Each 5 mL culture was then grown aerobically at 30° C. and the ABS600 was measured in triplicate at one-hour intervals.

peptide substrate (MGMM), sequence (P38174 whole entry H174A): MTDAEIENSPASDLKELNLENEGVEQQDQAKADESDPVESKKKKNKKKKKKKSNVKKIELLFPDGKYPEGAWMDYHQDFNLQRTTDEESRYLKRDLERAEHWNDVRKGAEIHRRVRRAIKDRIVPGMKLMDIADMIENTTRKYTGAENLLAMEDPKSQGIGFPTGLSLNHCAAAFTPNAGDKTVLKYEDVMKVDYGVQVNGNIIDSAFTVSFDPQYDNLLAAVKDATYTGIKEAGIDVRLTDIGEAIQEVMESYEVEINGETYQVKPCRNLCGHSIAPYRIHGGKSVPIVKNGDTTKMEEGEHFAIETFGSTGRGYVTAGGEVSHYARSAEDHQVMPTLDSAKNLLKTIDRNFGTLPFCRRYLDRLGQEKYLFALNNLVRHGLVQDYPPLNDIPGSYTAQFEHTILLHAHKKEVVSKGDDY

Take “MetAP2 (H174A): variant yeast MetAP2 with His174 replaced by alanine, N-terminal HA tag; dominant negative (SEQ ID NO:8)”: the “activity against a peptide substrate (MGMM) in vitro” value in the assay with peptide substrate (MGMM) is “no detectable activity”. The same substance returned a doubling time in the assay on yeast map1Δ strain (SG/Leu- medium, 30° C.) of 9.3 ± 0.6 h. Further, the “colony size / growth relative to map1Δ with vector alone” value in the assay on yeast map1Δ strain (galactose plates, 4 days at 30° C.) is “smaller colonies”.
